From PMC11940557, “Integration of metabolomics and chemometrics with in-silico and in-vitro approaches to unravel SARS-Cov-2 inhibitors from South African plants” (PLOS One, 2025) come the findings set out here.

For this test, the target named is T1, SARS-CoV-2 3CLpro (3CL protease, MBP-tagged; main protease, Mpro) (Severe acute respiratory syndrome coronavirus 2, UniProt P0DTD1).
T1 construct: gene rep
Description: fluorogenic protease substrate assay (ex […] / em […] nm). In kind it is biochemical.

pIC50: −log10 of the molar value.

Compound `CC(=O)O[C@H]1[C@H](Oc2c(-c3ccc(O)c(O)c3)oc3cc(O)cc(O)c3c2=O)O[C@H](CO[C@@H]2O[C@@H](C)[C@H](O)[C@@H](O)[C@H]2O)[C@@H](O)[C@@H]1O` [2”-O-acetylrutin] gave a pIC50 of 7.00.

For `CC(=O)OC[C@H]1O[C@@H](Oc2c(-c3ccc(O)c(O)c3)oc3cc(O)cc(O)c3c2=O)[C@H](O)[C@@H](O)[C@@H]1O` [quercetin 3-O-(6“-acetyl-glucoside)], the pIC50 was 6.92.

`O=C(O)CC(=O)OC[C@H]1O[C@@H](Oc2c(-c3ccc(O)c(O)c3)oc3cc(O)cc(O)c3c2=O)[C@H](O)[C@@H](O)[C@@H]1O` [quercetin 3-(6”-malonyl-glucoside)] showed a pIC50 of 6.77.

As a reminder, the pIC50 is the negative decadic logarithm of the IC50, by convention in mol/L. Read a high pIC50 as a small IC50.
